Assay results from patent US6224887A, “Antifungal nail lacquer and method using same” (MacroChem Corporation, priority 1999, dated 2001).
Read-outs that look alike come from different tables or passages of the source.

Settings: lacquer, 1200 h
Description: Using the above formulation with 5% Econazole and 53% ethanol, stability testing was performed. […] In addition, gas chromatography quantitative analysis was conducted on samples stored in glass containers for 50 days at 40° C./75%RH at varying pH (5.2, 6.83, 12.2; by addition of acid or base, as necessary).
The analytical test procedure involves a simple direct dilution and injection method for determining levels of both antifungal agent and enhancer compound in the same chromatogram, i.e., without separation steps. […] Specifically, a Hewlett-Packard Model 5890 Chromatograph with a Hewlett-Packard 50+(crosslinked 50% phenylmethylsiloxane), 30 m, 0.32 mm ID, 0.50μ film (Cat. #19091L) column and Model 7673 Autoinjector, operating in split mode (split flow 0.7 mL/min; split ratio 0.652:1), using methanol as wash solvent and hexanophenone as internal standard, was used for the analysis. In Table 2 the results are reported for the average of six injections.

In the case of `Clc1ccc(COC(Cn2ccnc2)c2ccc(Cl)cc2Cl)cc1` (stereo not drawn) [Econazole], the “Econazole Assay” value (pH 5.2) is reported as 94.29%, the “Econazole Assay” value (pH 6.83) is reported as 96.67% and the “Econazole Assay” value (pH 12.2) is reported as 97.60%.
An SEPA assay (pH 5.2) of 93.85%, an SEPA assay (pH 6.83) of 98.41% and an SEPA assay (pH 12.2) of 99.36% were found for `CCCCCCCCCC1OCCO1` [SEPA, 2-n-nonyl-1,3-dioxolane] in this work.
